Numbered stars: 1 amine (or outer) side, 2 acyl side, 3 side chain; on linkers, the order of the positions; unused ones are H or OH. Square brackets hold non-standard residues; d marks the D form. Peptide text beside a SMILES is read from it. dAla(ψthiazole) = C[C@@H](N[*:1])c1nc(C(=O)[*:2])cs1; Trp(4-OMe) = COc1cccc2[nH]cc(C[C@H](N)C(=O)O)c12; Dha = C=C(N)C(=O)O; Sar = CNCC(=O)O
Tests used:
[1] = biological target: T1, purified human 20S proteasome (Homo sapiens, UniProt P28072+P28074+Q99436); experiment: Proteasome assay with purified 20S proteasome, fluorogenic peptide substrates; format: biochemical; settings: purified human erythrocyte derived 20S proteasome
T1 construct: using erythrocyte-derived 20S proteasome (Biomol International, #LP PW8720); purchased Biomol International #LP PW8720; host or cells: human erythrocytes
Description: The expression levels of p27^kip1 were determined at the indicated timepoints by western blotting and normalized against actin expression which was used as an internal control.
Proteasome assays with purified 20S proteasome were performed as previously described (Lightcap, E. S. et al. Proteasome inhibition measurements: clinical application. Clin Chem 46, 673-83 (2000)) using erythrocyte-derived 20S proteasome (Biomol International, #LP PW8720) and fluorometric substrates Succ-LLVY-AMC, BZ-VGR-AMC and Z-Lle-AMC (Biomol International, LP PW9905) as probes according to the manufacturers instructions. Proteasome extraction from cells and tumour sections was done as previously described (Crawford, L. J. et al. Comparative selectivity and specificity of the proteasome inhibitors BzLLLCOCHO, PS-341, and MG-132. Cancer Res 66, 6379-86 (2006)). Briefly cells (MEF or MCF-7) or tissue sample homogenate (tumour sections) were re-suspended in 1 mL ATP/DTT lysis buffer (10 mmol/L Tris-HCl (pH 7.8), 5 mmol/L ATP, 0.5 mmol/L DTT, 5 mmol/L MgCl2), and incubated on ice for 10 minutes, followed by sonication for 15 seconds. […] Protein concentration of the samples was measured using a coomassie protein assay (Pierce, Rockford, Ill.).

HeLa cells = experiment: Apoptosis in HeLa cells with p27^kip1 specific siRNA; format: cell-based, human; settings: 24 or 48 hours
Source text: Next the inventors tested whether the stabilization of p27 was indeed required for the apoptosis inducing function of Argyrin A or was merely a consequence of proteasome inhibition. For this the inventors treated immortalized mouse embryonic fibroblasts from p27^kip1 wildtype or knockout mice with Argyrin A or the proteasome inhibitor bortezomib and assayed cell cycle distribution and apoptosis by flow cytometry. […] These differences in sensitivity in response to Argyrin A treatment were not due to differences in the accumulation of other proteasomal substrates in p27 wildtype and knockout cells as p53 and p21 levels increased in both cell lines in response to Argyrin A (FIG. 6B). To extend this observation to human cancer cells the inventors reduced the levels of p27^kip1 in HeLa cells using p27^kip1 specific siRNA.
The results shown are the average numbers for six independent experiments. b+d) Wildtype (b) and p27 knockout (d) MEF were treated with Argyrin A or transfected with siRNAs specific for the β1, β2 or β5 subunit of the proteasome for 24 hours. The graphs show the remaining catalytic activity of the different proteasome subunits after Argyrin A or siRNA treatment compared to an untreated control (n=3). […]

[2] = tested on: SW480 colon carcinoma xenotransplant tumours; experiment: SW480 xenotransplant tumours in nu/nu mice; format: in vivo, mouse; settings: for proteasome activity in the primary tumour tissue: single dose
Description: At the indicated timepoints 20S proteasome was isolated from peripheral blood cells and the activity of the different proteasome subunits was determined as described (FIG. 1d). b) SW480 colon carcinoma cell lines mixed with matrigel were injected under the skin of nu/nu mice to establish xenotransplant tumours. Treatment with Argyrin A or bortezomib was started when these tumours reached a volume of 200 mm^3. […] The activity of the respective proteasome subunits was determined as described previously (FIG. 1d). e) Determination of the number of p27^kip1 positive cells in tumour tissue after Argyrin A treatment. The pictures show representative samples of immunohistochemical stainings for p27 in tumour tissues after 10 days of Argyrin A treatment. f) Detection of apoptotic cells in xenotransplanted tumours by TUNEL staining of tumour tissues after treatment with Argyrin A or bortezomib. At least 200 cells were counted on five independent sections to quantitate the number of apoptotic cells.
MTT assays were done as previously described (Sasse, F. et al. Argyrins, immunosuppressive cyclic peptides from myxobacteria. I. Production, isolation, physico-chemical and biological properties. J Antibiot (Tokyo) 55, 543-51 (2002)). TUNEL staining of tissue sections was performed on 10 micrometer sections which were deparafinised and treated as recommended by the manufacturer. (In Situ Cell Death Detection Kit, Fluorescein; ROCHE, Cat #11 684 795 910). Flow cytometric analysis of cultured cells was done using a Becton Dickinson fluorescence cytometer as previously described (Malek, N. P. et al. A mouse knock-in model exposes sequential proteolytic pathways that regulate p27^Kip1 in G1 and S phase. Nature 413, 323-7 (2001)). Analysis of the distribution of cells in the cell cycle and the sub-G1 fraction was done using Cell Quest software. A histone-associated-DNA-fragments ELISA was used to determine the number of apoptotic cells according to manufacturers instructions (Roche #11 774425001).
Proteasome assays using proteasome purified from cells or tissues were carried out in a 100 μL reaction volume containing 20 μg proteasome extract, 50 mmol/L EDTA and 60 μmol/L fluorogenic substrate (chymotrypsin-like (CT-L), trypsin-like (T-L) or caspase-like (C-L)) in ATP/DTT lysis buffer at 37° C. The assay buffer was supplemented with a final concentration of 0.05% SDS for the evaluation of the chymotrypsin-like activity and caspase-like activity. The rate of cleavage of fluorogenic peptide substrates was determined by monitoring the fluorescence of released amonomethylcoumarin using a Victor 1420 Multilabel counter (Wallac) at an excitation wavelength of 395 nm and emission wavelength of 460 nm over a period of 60 min.
1×10^7 SW480 cells or HCT116 cells (in 100 microliters DMEM medium and 100 microliters matrigel) were s.c. injected into the flanks of NMRI nu/nu mice. Tumours grew for approx. 18 days until they reached appropriate size (200 mm3). Tumour size was measured with a digital calliper and calculated with the help of the following formula: (Length×width2)*π/6. All experiments were done after review and in accordance with the animal rights and protection agencies of Lower Saxony, Germany.

Compound	caspase, trypsin and chymotrypsin like proteasome activities [1]	apoptosis inducing function in HeLa cells treated with p27siRNA (HeLa cells)	size of the xenotransplanted tumours ([2]; SW480, 0.15 mg/kg i.p. every three days)	apoptotic cell death, share of all tumor cells ([2]; SW480 xenograft, TUNEL staining) [%]	p27^kip1 in tumour tissue ([2]; SW480 xenograft, immunohistochemistry)	proteasome activity in the primary tumour tissue [2]
C=C1NC(=O)[C@@H](C)NC(=O)CNC(=O)[C@H](Cc2c[nH]c3cccc(OC)c23)NC(=O)[C@H](Cc2c[nH]c3ccccc23)NC(=O)c2csc(n2)[C@@H](C)NC(=O)CN(C)C1=O [Argyrin A] (cyclo(W[Trp(4-OMe)]G[dA][Dha][Sar][dAla(ψthiazole)]))	dose dependent inhibition	completely blocked	significant reduction	> 60	induction	significant reduction
CC(C)C[C@H](NC(=O)[C@H](Cc1ccccc1)NC(=O)c1cnccn1)B(O)O [bortezomib, reference compound]						significant reduction
